We go through four molecules from paper PMC4424837, “Toxin acidic residue evolutionary function-guided design of de novo peptide drugs for the immunotherapeutic target, the Kv1.3 channel” (Scientific Reports, 2015).

Positions of bridges follow the written chain, without caps; N, C: chain ends. Residues, ends and D or L forms follow the SMILES beside them. No end group written: not given here.

One data set relates to Kv11.1. As to the kind of experiment: Patch-clamp whole-cell recording of Kv11.1 channel currents in transfected HEK293 cells. The format is cell-based, human. To be noted: 1 μM peptide, compared with Kv1.3. (The patch-clamp technique gives a direct electrical read-out from membranes.)
A further data set deals with T1, Kv1.3 channel (Mus musculus, UniProt P16390).
T1 construct: expressed in transfected cells; host or cells: HEK293 cells
T1 sequence (P16390 whole entry): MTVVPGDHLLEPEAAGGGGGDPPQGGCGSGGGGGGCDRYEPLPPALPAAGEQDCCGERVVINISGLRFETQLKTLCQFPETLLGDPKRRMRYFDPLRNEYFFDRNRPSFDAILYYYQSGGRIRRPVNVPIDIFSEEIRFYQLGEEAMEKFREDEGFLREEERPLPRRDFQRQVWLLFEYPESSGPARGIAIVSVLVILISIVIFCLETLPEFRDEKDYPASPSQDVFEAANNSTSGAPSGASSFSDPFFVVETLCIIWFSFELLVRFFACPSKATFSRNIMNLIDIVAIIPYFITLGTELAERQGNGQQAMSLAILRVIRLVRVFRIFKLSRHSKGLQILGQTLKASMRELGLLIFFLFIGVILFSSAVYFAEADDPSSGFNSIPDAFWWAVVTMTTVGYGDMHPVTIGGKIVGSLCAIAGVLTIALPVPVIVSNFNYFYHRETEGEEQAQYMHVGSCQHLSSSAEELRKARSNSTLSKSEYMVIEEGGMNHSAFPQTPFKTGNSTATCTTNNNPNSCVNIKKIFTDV
The data set can be described thus: Patch-clamp whole-cell recording of Kv1.3 channel currents in transfected HEK293 cells. In kind it is cell-based. To be noted: for Reduction of the affinity of BmKTX-196 for the Kv1.3 channel: alanyl mutants of BmKTX-196.

Description for Kv1.3 channel: (§1) The cDNAs encoding mouse Kv1.1, human Kv1.2, mouse Kv1.3, human Kv7.1, human Kv11.1, human KCa3.1, human KCa2.2 and human KCa2.3 were subcloned into the Xho I and Bam HI sites of pIRES2-EGFP, a bicistronic expression vector (Clontech, USA) for coexpression with enhanced GFP.
(§2) Electrophysiological experiments were carried out using patch-clamp whole-cell recording as described previously[10][23][27][38]. HEK293 cells were transfected with appropriate cDNA plasmids using the SofastTM Transfection Reagent (Sunma). Potassium currents were recorded 1 to 3 days after transfection and positive cells were selected based on the presence of GFP fluorescence. Electrophysiological experiments were carried out at 22–25°C using patch-clamp whole-cell recording. Data analyses were performed with IgorPro (WaveMetrics, Lake Oswego, OR), and IC50 values were deduced by fitting a modified Hill equation to the data, Itoxin/Icontrol = 1/1 + ([toxin peptide]/IC50), where I is the peak current to the normalized data points obtained with at least five different toxin peptide concentrations. The results are mainly shown as the mean ± S.E, with n representing the number of experiments.
Description for Kv11.1: as §1, §2

One may read the IC50 as the concentration needed to halve the response being measured. Take `CC[C@H](C)[C@H](NC(=O)CNC(=O)[C@@H](N)C(C)C)C(=O)N[C@@H](CC(N)=O)C(=O)N[C@H](C(=O)N[C@@H](CC(=O)O)C(=O)N[C@H]1CSSC[C@@H]2NC(=O)[C@H](CCCCN)NC(=O)CNC(=O)[C@H](Cc3ccccc3)NC(=O)[C@H](CCCNC(=N)N)NC(=O)[C@H](CCSC)NC(=O)CNC(=O)[C@H](C)NC(=O)[C@H](CCCCN)NC(=O)[C@H](CCCCN)NC(=O)[C@@H]3CSSC[C@@H](C(=O)N[C@H](C(=O)N4CCC[C@H]4C(=O)N[C@@H](CCCCN)C(=O)O)[C@@H](C)O)NC(=O)[C@H](CC(=O)O)NC(=O)[C@H](CSSC[C@H](NC(=O)[C@H](CCC(N)=O)NC(=O)CNC(=O)[C@H](CO)NC(=O)[C@H](Cc4c[nH]cn4)NC(=O)[C@H](CCCCN)NC1=O)C(=O)N[C@@H](CC(C)C)C(=O)N[C@@H](CCCCN)C(=O)N1CCC[C@H]1C(=O)N3)NC(=O)[C@H](CCCCN)NC(=O)CNC(=O)[C@H](CC(N)=O)NC(=O)[C@H]([C@@H](C)CC)NC2=O)C(C)C` [BmKTX-196] (H-VGINVDCKHSGQCLKPCKKAGMRFGKCINGKCDCTPK-OH; disulfide 7-27, 13-32, 17-34): the “Effect on Kv11.1 channel currents” value with Kv11.1 was “much less of an effect”. For the same molecule, at Kv1.3 channel (10 nM peptide, whole-cell patch clamp, HEK293), the “Inhibition of Kv1.3 channel currents” value was “more than 50%”. Moreover, the half-inhibitory concentration (IC50) on Kv1.3 channel (whole-cell patch clamp, HEK293 transfected with mouse Kv1.3, 22-25°C, Hill fit, at least five concentrations, mean ± S.E. of at least three experiments, read-out: IC50 for inhibiting Kv1.3 channel current) came to 7.3 ± 1.8 nM.

On to “BmKTX-19/K6A: alanyl mutant of BmKTX-19 at Lys6 (VGINVACKHSGQCLKPCKKAGMRFGKCINGKCDCTPKG; ends and bridges not checked; cysteine pairing not given here)”, for which, in the data set with Kv1.3 channel (alanine-scanning mutagenesis, alanyl mutants of BmKTX-19, compared with the Lys8, His9 and Lys15 substitutions), the “Impact on the inhibitory potency of BmKTX-19 on Kv1.3” value is “much less of an impact”.

On to “BmKTX-196/H9A: alanyl mutant of BmKTX-196 at His9 (VGINVDCKASGQCLKPCKKAGMRFGKCINGKCDCTPKG; ends and bridges not checked; cysteine pairing not given here)”, for which, in the data set with Kv1.3 channel (alanine-scanning mutagenesis), the “Reduction of the affinity of BmKTX-196 for the Kv1.3 channel” value is recorded as 3 fold.

For “BmKTX-196/K8A: alanyl mutant of BmKTX-196 at Lys8 (VGINVDCAHSGQCLKPCKKAGMRFGKCINGKCDCTPKG; ends and bridges not checked; cysteine pairing not given here)”, the “Reduction of the affinity of BmKTX-196 for the Kv1.3 channel” value with Kv1.3 channel (alanine-scanning mutagenesis) is given as 68 fold.
